Data on 5 compounds can be found in patent publication US20210386737A1, “DIHYDROIMIDAZOPYRAZINONE COMPOUND, COMPOSITION INCLUDING SAME, AND USE THEREOF” (priority 2018, published 2021).

pIC50: −log10 of the molar value.

Assay [1] relates to phospho-p90RSK in A375 cell line. The experiment in a line: A375 cell assay (phospho-p90RSK sandwich ELISA). The conditions noted are these: Homo sapiens, A-375; inhibition of phospho-p90RSK, A375 cells (BRAF V600E), 4 hours incubation. In kind it is cell-based. How it is done:
The cells in the logarithmic growth phase were taken and the trypan blue exclusion method was used to detect the cell viability to ensure that the cell viability is above 90%. The cell concentration was adjusted, and 150 μL cell suspension was added to a 96-well plate, which was incubated at 37° C., 5% CO2 for 16 h. The maximum concentration of the drug to be tested was 10 μM, which was diluted into 10 concentrations with a 3-fold gradient dilution, 50 μL drug solution was added to each well of the 96-well plate in duplicate, and incubation was continued for 4 hours. After removing the medium, 0.2 ml cell lysis solution and […] were added to each well, which was incubated on ice for 30 mm, and centrifuged for 10 min at 4° C. to afford cell lysis solution. PathScan®Phospho-p90RSK (Thr359) Sandwich ELISA Kit (CST, catalog No. 91959C) was used for detecting the inhibitory rate of the compounds of the present disclosure on phospho-p90RSK, to each well 100 μL cell lysis solution was added, and incubated at 4° C. overnight. The plate was washed, added with 100 μL reconstituted Detection Antibody, and incubated at 37° C. for 1 h. The plate was washed, added with 100 μL reconstituted HRP-Linked secondary antibody, and incubated at 37° C. for 30 min. The plate was washed, added with 100 μL TMB Substrate, and after incubating at 25° C. for 30 min, 100 μL STOP Solution was added, and EnVision (Perkin Elmer 2104) was used to detect fluorescence value, and inhibitory rates under the effect of different concentrations of compounds were calculated. The calculation of IC50 was carried out using Prism Graphpad 8.0, software.
Phospho-p90RSK cell assay was conducted in A375 cell line, which has human malignant melanoma with BRAF V600E mutation that upregulates the MAPK pathway, and therefore has increased endogenous levels of phospho-ERK and phospho-p90RSK.
On the technique in general: An ELISA detects its analyte on a solid surface through an enzyme-linked reagent.

Another assay has as its target T1, ERK2 kinase (Homo sapiens, UniProt P28482).
T1 construct: purchased Promega V1961
As to the kind of experiment: ERK2 kinase inhibition (ADP-Glo). Particulars: ADP-Glo kit, 20 minutes reaction at room temperature. In kind it is biochemical. From the text: ERK2 kinase (Promega, catalog No. V1961), RET (V804M), Active (Signalchem, catalog No, R02-12GG), ADP-Glo™ kit (Promega, catalog No. V9102), GDC-0994 (MCE, catalog No. HY-15947), ATP (Promega, catalog No. V910B), DMSO (Sigma, catalog No. D8418), DTT (Invitrogen, catalog No. P2325), 384-well plate (Greiner, catalog No. 784075), polypropylene 384-well plate (Labcyte, catalog No. P-05525-BC), polypropylene 96-well plate (Nunc, catalog No. 249944), plate shaker (Thermo, catalog No. 4625-1 CECN/THZ Q), centrifuge (Eppendorf, catalog No. 5810R), multilabel ELISA reader Envision 2104 multi-label Reader (PerkinElmer, catalog No. 74785), Echo acoustic dispenser (Labcyte, catalog No. 550).
Compound formulation: The test compounds were dissolved in DMSO to prepare a 10 mM stock solution. Then, the stock solution was diluted 10 times with a 3-fold gradient. When addition, 10-fold dilution was made with buffer solution.
ERK2 kinase assay: In 1× kinase buffer solution, ERK2 kinase was mixed with pre-formulated and diluted compounds of different concentrations for 10 minutes in duplicate for each concentration. The corresponding substrate and ATP were added thereto, and reacted at room temperature for 20 minutes (both a negative and a positive control were set, wherein the negative is blank control, and the positive control is GDC-0994). Detection reagent was added after the reaction is complete (reagent in ADP-Glo™ kit), and after 40 minutes of incubation at room temperature, Envision 2104 multi-label Reader ELISA reader was used for detection of enzyme activities under the presence of compounds of the present disclosure with different concentrations, and the inhibitory activities of different concentrations of compounds on enzyme activity were calculated. GraphPad Prism 6.0 software was used for data analysis, nonlinear curve regression was used to fit the data to get the dose-response curve, thereby IC50 values were calculated.

T1 sequence (P28482 whole entry): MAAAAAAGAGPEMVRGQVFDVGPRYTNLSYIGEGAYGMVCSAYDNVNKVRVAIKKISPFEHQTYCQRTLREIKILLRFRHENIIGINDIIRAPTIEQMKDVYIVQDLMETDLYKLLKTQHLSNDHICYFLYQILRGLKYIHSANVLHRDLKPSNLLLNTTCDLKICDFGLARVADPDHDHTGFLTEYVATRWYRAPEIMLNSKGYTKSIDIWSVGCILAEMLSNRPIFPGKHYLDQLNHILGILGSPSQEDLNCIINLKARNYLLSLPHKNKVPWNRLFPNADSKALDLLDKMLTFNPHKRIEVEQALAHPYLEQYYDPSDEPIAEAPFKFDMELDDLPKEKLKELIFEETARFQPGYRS

Compound `[2H]C([2H])([2H])n1nccc1Nc1ncc(C)c(-c2cn3c(n2)C(=O)N(Cc2ccc(F)c(F)c2)[C@@H](COC)C3)n1` [Compound I-1, (R)-7-(3,4-difluorobenzyl)-6-(methoxymethyl)-2-(5-methyl-2-((1-(methyl-d3)-1H-pyrazol-5-yl)amino)pyrimidin-4-yl)-6,7-dihydroimidazo[1,2-a]pyrazin-8(5H)-one] showed a pIC50 in assay [1] of 7.52. With `COC[C@H]1Cn2cc(-c3nc(Nc4ccnn4C)ncc3C)nc2C(=O)N1Cc1ccc(F)c(F)c1` [AZD0364, (R)-7-(3,4-difluorobenzyl)-6-(methoxymethyl)-2-(5-methyl-2-((1-methyl-1H-pyrazol-5-yl)amino)pyrimidin-4-yl)-6,7-dihydroimidazo[1,2-a]pyrazin-8(5H)-one, reference compound], the values for the pIC50 (in assay [1]; against ERK2 kinase) were 7.41 and 8.40, respectively. As to `[2H]C([2H])([2H])OC[C@H]1Cn2cc(-c3nc(Nc4ccnn4C)ncc3C)nc2C(=O)N1Cc1ccc(F)c(F)c1` [Compound I-4-1, (R)-7-(3,4-difluorobenzyl)-6-((methoxy-d3)-methyl)-2-(5-methyl-2-((1-methyl-1H-pyrazol-5-yl)amino)pyrimidin-4-yl)-6,7-dihydroimidazo[1,2-a]pyrazin-8(5H)-one], the values for the pIC50 (in assay [1]; on ERK2 kinase) were 7.60 and 8.51, respectively. As to `[2H]C([2H])(c1ccc(F)c(F)c1)N1C(=O)c2nc(-c3nc(Nc4ccnn4C([2H])([2H])[2H])ncc3C)cn2C[C@@H]1COC` [Compound I-3, (R)-7-((3,4-difluorophenyl)methyl-d2)-6-(methoxymethyl)-2-(5-methyl-2-((1-(methyl-d3)-1H-pyrazol-5-yl)amino)pyrimidin-4-yl)-6,7-dihydroimidazo[1,2-a]pyrazin-8(5H)-one], the figures for the pIC50 (in assay [1]; on ERK2 kinase) were 7.46 and 8.48, respectively.

For the compound `[2H]C([2H])([2H])OC[C@H]1Cn2cc(-c3nc(Nc4ccnn4C([2H])([2H])[2H])ncc3C)nc2C(=O)N1Cc1ccc(F)c(F)c1` [Compound I-5-1, (R)-7-(3,4-difluorobenzyl)-6-((methoxy-d3)-methyl)-2-(5-methyl-2-((1-(methyl-d3)-1H-pyrazol-5-yl)amino)pyrimidin-4-yl)-6,7-dihydroimidazo[1,2-a]pyrazin-8(5H)-one], the figures for the pIC50 (in assay [1]; against ERK2 kinase) were 7.53 and 8.56, respectively.

The term pIC50 denotes −log10 of the IC50, conventionally taken in molar units.
